The source made the active and inactive calls.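 Rule for the calls: active = compounds giving half or more protection of infected cells from virus-caused growth loss, again on retest; inactive = the rest.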 Where a SMILES comes first, the peptide text is derived from it. Bounds are passed on as bounds.

For this test, the system named is CEM cells HIV-1 protection, formazan growth assay. The test is described as follows: NCI AIDS Antiviral Assay. To be noted: for IC50: measured here: growth of uninfected CEM cells. The protocol:
The ability of compounds to protect human CEM cells from HIV-1 infection is measured as a screen for new compounds capable of inhibiting the HIV virus. Five concentrations of drug were tested on uninfected and infected cells and cell growth was measured using a soluble formazan assay. […] Compounds that provided at least 50% protection were retested. Compounds that provided at least 50% protection on retest were listed as moderately active. Compounds that reproducibly provided 100% protection were listed as confirmed active. […] Note that the inability to provide protection could be due to toxicity.

In general, EC50 refers to the midpoint of the concentration-response curve. The term IC50 denotes the concentration that gives 50% inhibition. Low readings indicate higher potency, high ones lower potency. With `COc1cccc(C2CCCC(C#N)C2=N)c1OC` (configuration not stated), the EC50 is greater than 200 µM and the IC50 was found to be 126 µM.
As to `Cc1n[nH]c(C)c1N=O`, the EC50 was greater than 200 µM and the IC50 came to 4.27 µM.
As to `COc1cc(Oc2nc3ccccc3nc2C(=O)O)cc(OC)c1OC`, the EC50 is greater than 200 µM and the IC50 is greater than 200 µM.
With `CCOC(=O)c1ccc(N/N=[N+](/[O-])CC2OC(n3ccc(=O)[nH]c3=O)C(O[Si](C)(C)C(C)(C)C)C2O[Si](C)(C)C(C)(C)C)cc1` (configuration not stated), the EC50 was greater than 200 µM and the IC50 turned out to be 21.4 µM.
For `N#CCC(=O)Nn1c(CC#N)nnc1Cc1ccccc1`, the outcome was inactive.
Consider `COCn1cnc2c(=O)nc(SC)n(-c3ccccc3)c21`, for which the EC50 was greater than 200 µM and the IC50 is greater than 200 µM.
As to `N[C@@H](CSSC[C@H](N)C(=O)OCc1ccccc1)C(=O)OCc1ccccc1`, the EC50 was greater than 200 µM and the IC50 amounted to 83.2 µM.
Taken in the same sequence, the figures for `N#Cc1nc(COCCOCc2ccc(F)cc2)oc1N` were greater than 200 µM and greater than 200 µM.
Turning to `N#CI1OC(C(F)(F)F)(C(F)(F)F)c2ccccc21`, the EC50 is greater than 200 µM and the IC50 came to 9.55 µM.
Taken in the same sequence, the figures for `CCOC(=O)C(=O)C1C(=O)N(C)C2(C)CC1c1ccccc1O2` (configuration not stated) were greater than 200 µM and greater than 200 µM.
On to `O=C1CSc2ncccc2N1c1ccc([N+](=O)[O-])cn1`, for which the EC50 is greater than 200 µM and the IC50 was greater than 200 µM.
With `CCOC(=O)c1sc2nc(SC)nc3c2c1NCN3c1ccccc1Cl`, the EC50 was greater than 200 µM and the IC50 is greater than 200 µM.
Regarding `CCCN(CCCN)/[N+]([O-])=N\O`, the EC50 was greater than 8910 µM and the IC50 was 1580 µM.
The corresponding values for `CC1=C(C(=O)NNC(=O)c2ccccc2O)CC(C(=O)NNC(=O)c2ccccc2O)=C(C)N1` are greater than 200 µM and 1.66 µM.
Consider `O=C1NC(=O)C2C1C1C=C3c4ccccc4N(c4ccccc4)C32[C@H]2C(=O)NC(=O)[C@@H]12` (some centres not stated), for which the EC50 is greater than 316 µM and the IC50 was determined as 112 µM.
The corresponding values for `O=S(=O)(O)c1cc(Nc2ccnc3ccccc23)c2c(S(=O)(=O)O)cc(S(=O)(=O)O)cc2c1` are greater than 200 µM and greater than 200 µM.
The corresponding values for `COc1ccc(N=C2SC(=N/N=c3\sc4ccccc4n3C)SC2=Nc2ccc(OC)cc2)cc1` are greater than 200 µM and 63.1 µM.
With `Cc1ccc2c(n1)NC(=O)C(Cc1ccccc1)(N=[N+]=[N-])C2=O` (configuration not stated), the EC50 was greater than 200 µM and the IC50 is greater than 200 µM.
Consider `COc1ccc(-c2cc(=O)c3c(C)cc(O)cc3o2)cc1OC`, for which the EC50 is greater than 200 µM and the IC50 was found to be 174 µM.
Consider `CCNC(=O)c1cc(NC(=O)c2ccc(C(=O)Nc3cc(C(=O)NCC)cc(C4=NCCN4)c3)cc2)cc(C2=NCCN2)c1`, for which the EC50 is greater than 200 µM and the IC50 stood at 87.1 µM.
For `CC(C)CC(=O)[O-].CC(C)CC(=O)[O-].N.N.N.N.[Co+3].[O-][Cl+3]([O-])([O-])O.[O-][Cl+3]([O-])([O-])[O-]`, the outcome was inactive.
For the compound `C/C=C1/CC(C(=O)OC)N(C(=O)OCc2ccccc2)C1=S` (configuration not stated), the EC50 is greater than 200 µM and the IC50 is greater than 200 µM.
For `C[C@]12CC[C@H](O)C[C@@H]1CC[C@@H]1[C@@H]2CC[C@]2(C)c3nc4ccccc4cc3C[C@@H]12`, the EC50 was greater than 200 µM and the half-inhibitory concentration (IC50) is 8.13 µM.
With `CN(C(=O)c1ccccc1)c1ccc2c(c1)C(=O)c1ccccc1C2=O`, the EC50 was greater than 15.1 µM and the IC50 was greater than 15.1 µM.
With `CN(C)C(=NCc1ccccc1)NC#N`, the EC50 was greater than 1230 µM and the IC50 is greater than 1230 µM.
In the case of `CCOP(=O)(CCC(O)CNc1nc(N)nc(Cl)c1N=Nc1ccc(Cl)cc1)OCC` (configuration not stated), the EC50 was greater than 200 µM and the IC50 came to 6.46 µM.
Taken in the same sequence, the figures for `CC12CCC(=O)C=C1C=CC1C2CCC2(C)C1CCC21CCC(=O)O1` (configuration not stated) were greater than 200 µM and 83.2 µM.
Taken in the same sequence, the figures for `COCCOCCOC(=O)C(CO)(CC(CO)(C(C)=O)C(=O)OCCOCCOC)C(C)=O` (configuration not stated) were greater than 200 µM and greater than 200 µM.
Taken in the same sequence, the figures for `CC1(C)COC2(C)N(c3ccccc3)C(=O)ON12` (configuration not stated) were greater than 200 µM and greater than 200 µM.
Take `CC(C)(C)c1cc(N=NC(=S)NCc2ccccc2)cc(C(C)(C)C)c1O`: the EC50 is greater than 7.08 µM and the IC50 is greater than 7.08 µM.
For the compound `C=C1[C@H]2C[C@H]3[C@@H]4N5C[C@]6(C)CCCC47C6[C@@]5(O)CC3([C@@H]1O)[C@H]7[C@H]2O`, the result was inactive.
For the compound `COC1(O)C(=O)c2ccccc2OC1(OC)c1ccc(Cl)cc1` (configuration not stated), the EC50 was greater than 200 µM and the IC50 stood at 4.57 µM.
With `CC(C)C(C(=O)O)N(CC1(O)OCC(O)C(O)C1O)N=O` (configuration not stated), the result was inactive.
`CC(C)CC(N)C(=O)NC(CC(=O)O)C(=O)NC(CCCCN)C(=O)NC(C)C(=O)NC(CO)C(=O)NC(Cc1ccc(O)cc1)C(=O)NC(CO)C(=O)NC(C(=O)NC(CC(N)=O)C(=O)NC(Cc1cnc[nH]1)C(=O)O)C(C)O` (configuration not stated) (H-LDKASYSTNH-OH; configuration not given here): the EC50 was greater than 21.9 µM and the IC50 was greater than 21.9 µM.
In the case of `COc1cc2c3c(c1)nnn3C(=O)C(c1ccccc1)S2` (configuration not stated), the EC50 is greater than 200 µM and the IC50 was greater than 200 µM.
For the compound `CC1=NN(C(=O)c2ccc(Cl)cc2)C(=O)/C1=C/c1ccccc1O`, the EC50 is greater than 20.9 µM and the IC50 was greater than 20.9 µM.
Consider `COc1ccc(OC(=O)N2C/C(=C\c3ccccc3)C(=O)/C(=C/c3ccccc3)C2)cc1`, for which the result was inactive.
Turning to `CCOP(=O)(OCC)/C(C#N)=C/c1cccc(C)c1`, the EC50 is greater than 339 µM and the IC50 was greater than 339 µM.
For `C#CN1C(=O)c2c(c(-c3ccccc3)c(-c3ccc(Oc4ccc(-c5c(-c6ccccc6)c6c(c(-c7ccccc7)c5-c5ccccc5)C(=O)N(C#C)C6=O)cc4)cc3)c(-c3ccccc3)c2-c2ccccc2)C1=O`, the EC50 was greater than 10.2 µM and the IC50 was greater than 10.2 µM.
On to `Nc1ccc(C(=O)N/C(=C\c2cccc([N+](=O)[O-])c2)c2nc3c4c(ccc3[nH]2)C(=O)c2ccccc2C4=O)cc1`, for which the result was inactive.
As for `COc1ccc(-c2c(C3=NCCCN3)nnn2-c2ccc([N+](=O)[O-])cc2)cc1`, the EC50 was greater than 13.8 µM and the IC50 was greater than 13.8 µM.
On to `NCc1ccc(-c2ccc(CN)s2)s1`, for which the EC50 was greater than 28.2 µM and the IC50 is 13.2 µM.
With `COC1=CC(=O)C2C(C1=O)C(c1ccccc1)[C@H]2C` (some centres not stated), the EC50 was greater than 372 µM and the IC50 worked out at 22.9 µM.
Taken in the same sequence, the figures for `CCOC(=O)C1CC(C(=O)OCC)c2nc3ccccc3nc21` (configuration not stated) were greater than 8.71 µM and greater than 8.71 µM.
The corresponding values for `O=C(CC(=O)Nc1cccc(Cl)c1)NNCC(=O)Nc1nnc(-c2ccccc2)s1` are greater than 22.4 µM and greater than 22.4 µM.
As to `CC1(c2cccc3ccc(F)cc23)OC(=O)c2ccccc21` (configuration not stated), the EC50 was greater than 41.7 µM and the IC50 was determined as 7.94 µM.
Take `NNC(=O)N/N=C1/C(=O)N(c2ccc(Cl)c(Cl)c2)C(=O)C(=O)C1c1nc2ccccc2o1` (configuration not stated): the outcome was inactive.
For the compound `COc1ccc(/C(C)=N/N=C\c2cc(OC)c(OC)c(OC)c2)cc1`, the EC50 is greater than 200 µM and the IC50 was greater than 200 µM.
As to `CC(=O)NC1C(OCC(=O)N2CCCC2C(=O)NC(CCC(=O)NCCCCCNc2ccc([N+](=O)[O-])c3[nH]c4ccccc4c(=O)c23)C(N)=O)C(O)C(CO)OC1(C)OCc1ccccc1` (configuration not stated), the EC50 is greater than 50.1 µM and the IC50 was 1.02 µM.
In the case of `S=C(N/N=C/c1ccco1)NC12CC3CC(CC(C3)C1)C2`, the result was inactive.
With `CC(=O)NCCCCN(CCCNC(C)=O)C(=O)OCc1ccccc1`, the EC50 is greater than 200 µM and the IC50 is greater than 200 µM.
`CCCCOP(=O)(OCCCC)/C(C#N)=C/c1ccc(C)o1`: the EC50 is greater than 200 µM and the IC50 stood at 102 µM.
In the case of `CCOC(=O)C(=O)Nc1c(C(C)C)cccc1C(C)C`, the outcome was inactive.
In the case of `CCOC(=O)c1c(Cl)nc2ccccc2c1N=[N+]=[N-]`, the EC50 was greater than 200 µM and the IC50 was found to be 31.6 µM.
Regarding `COCCNC(=O)C1C(=O)C(=O)N(CCOC)C1=O` (configuration not stated), the result was inactive.
As for `CCC(C)SC1SCC2C(=O)N(C)C3(CC3C)C(=O)OCC(NC(=O)c3nc4ccccc4cc3O)C(=O)NC(C)C(=O)N(C)C1C(=O)N(C)C1(CC1C)C(=O)OCC(NC(=O)c1nc3ccccc3cc1O)C(=O)NC(C)C(=O)N2C` (configuration not stated), the EC50 is greater than 0.02 µM and the IC50 amounted to 8.71e-05 µM.
Taken in the same sequence, the figures for `COc1ccc(CN2C(=S)SC(c3ccc(Cl)cc3)N2c2ccc(OC)cc2)cc1` (configuration not stated) were greater than 200 µM and greater than 200 µM.
`CCOC(=O)/C(C#N)=C/c1ccc([N+](=O)[O-])cc1`: the EC50 is greater than 21.4 µM and the IC50 is greater than 21.4 µM.
For the compound `c1ccc2c(c1)C1CCC2c2ccccc21`, the EC50 is greater than 200 µM and the IC50 was greater than 200 µM.
Regarding `O=C(NCCCn1ccnc1[N+](=O)[O-])C(=O)NCCCn1ccnc1[N+](=O)[O-]`, the EC50 was greater than 200 µM and the IC50 was greater than 200 µM.
Turning to `O=C1OC(CCCN2CCCCC2)(c2ccccc2)CC12CCCC2` (configuration not stated), the EC50 is greater than 200 µM and the IC50 came out at 191 µM.
Taken in the same sequence, the figures for `O=C(NC(=Nc1ccccc1)SCSC(=Nc1ccccc1)NC(=O)c1ccc(F)cc1)c1ccc(F)cc1` were greater than 200 µM and greater than 200 µM.
The corresponding values for `O=C(NC1CN2CCC1CC2)C(c1ccc(F)cc1)c1ccc(F)cc1` (configuration not stated) are greater than 200 µM and 5.37 µM.
Taken in the same sequence, the figures for `CCC(=O)NC(Nc1ccccc1F)(C(F)(F)F)C(F)(F)F` were greater than 200 µM and greater than 200 µM.
Turning to `O=C(O)COc1ccc(Cl)cc1Cc1cc(Cl)ccc1OCC(=O)O`, the EC50 was greater than 200 µM and the IC50 was 89.1 µM.
As for `C=CCCC1(CC(Sc2ccccc2)P(=O)(c2ccccc2)c2ccccc2)OCCO1` (configuration not stated), the EC50 is greater than 200 µM and the IC50 was greater than 200 µM.

The values above are taken from PubChem BioAssay AID179 (DTP/NCI, 2004).
